Values after ≈ are worked out from the molar mass of the structure shown. Like-named read-outs stand apart in the source and are kept apart here.
Columns and labels:
[1] = biological target: T1, full-length beta-Catenin (Uniprot ID P35222) (Homo sapiens, UniProt P35222); assay: Fluorescence polarization IC50 (beta-catenin / 5FAM-TCF4 10-53 competition); type: binding
T1 construct: 10 nM full-length beta-Catenin (Uniprot ID P35222)
T1 sequence (P35222 1-781): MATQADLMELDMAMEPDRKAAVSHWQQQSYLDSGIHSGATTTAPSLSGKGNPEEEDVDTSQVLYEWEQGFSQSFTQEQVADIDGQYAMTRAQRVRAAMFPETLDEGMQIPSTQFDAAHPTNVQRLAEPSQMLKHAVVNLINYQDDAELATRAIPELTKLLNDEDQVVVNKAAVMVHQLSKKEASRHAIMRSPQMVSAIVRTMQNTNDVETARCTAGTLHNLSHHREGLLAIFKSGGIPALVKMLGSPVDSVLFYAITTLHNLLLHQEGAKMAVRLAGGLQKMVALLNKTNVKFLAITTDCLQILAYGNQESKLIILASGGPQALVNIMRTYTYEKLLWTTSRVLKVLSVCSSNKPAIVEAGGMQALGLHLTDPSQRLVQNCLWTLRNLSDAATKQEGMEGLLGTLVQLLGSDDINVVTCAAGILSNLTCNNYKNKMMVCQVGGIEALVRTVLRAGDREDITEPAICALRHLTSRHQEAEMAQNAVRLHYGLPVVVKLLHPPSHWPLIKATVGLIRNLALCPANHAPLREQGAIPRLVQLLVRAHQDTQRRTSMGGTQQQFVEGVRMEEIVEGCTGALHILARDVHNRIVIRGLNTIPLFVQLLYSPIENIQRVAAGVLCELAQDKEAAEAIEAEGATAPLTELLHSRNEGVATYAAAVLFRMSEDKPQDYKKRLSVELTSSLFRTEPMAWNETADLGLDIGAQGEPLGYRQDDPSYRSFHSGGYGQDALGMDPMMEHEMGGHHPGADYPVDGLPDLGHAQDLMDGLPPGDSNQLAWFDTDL

[2] = CHI Log D procedure; type: physicochemical
[3] = Solubility in PBS; type: physicochemical
Outline: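 HPLC quantitation of peptide remaining in the PBS supernatant after ultracentrifugation, referenced to a 50 μM solution in DMSO.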

[4] = fluorescence polarization, beta-catenin, read-out: FP EC50

Structure (SMILES)	IC50 ([1]; read-out: beta-Catenin FP IC50) [nM]	chromatographic logD ([2]; pH 7.4, CHI Log D)	Solubility [3] [µM]	Solubility ([3]; Solubility (uM)) [µM]	IC50 ([1]; read-out: FP EC50) [nM]	IC50 [1, 4] [nM]	CHI Log D ([2]; pH 7.4)	IC50 ([1]; FP EC50 (nM), fluorescence polarization, beta-catenin) [nM]	chromatographic logD ([2]; pH 7.4)
CC(=O)N1CCC[C@]12CC=CCCCC1(CCCC=CCCCOC(=O)N3CC[C@@](C(=O)N[C@@H](Cc4ccsc4)C(=O)N[C@@H](Cc4csc5ccccc45)C(=O)N[C@@H](CCC(N)=O)C(N)=O)(C3)NC(=O)[C@H](CC(N)=O)NC(=O)[C@H](Cc3ccccc3)NC(=O)[C@H](C)NC(=O)[C@H](C)NC(=O)[C@H](CC(=O)O)NC(=O)[C@H](CC(=O)O)NC1=O)NC(=O)[C@H](CCC(C)C)NC(=O)[C@H](CC(=O)O)NC2=O (stereo partly drawn) [I-787, Ac-PL3-Asp-hLeu-B5-Asp-Asp-Ala-Ala-Phe-Asn-PyrS2-3Thi-BztA-Gln-NH2]	5	2.08	50 (≈ 95.9 µg/mL)						
CC(=O)N1CCC[C@]12CC=CCCCC1(CCCC=CCCCOC(=O)N3CC[C@@](C(=O)N[C@@H](Cc4ccsc4)C(=O)N[C@@H](Cc4c[nH]c5ccc(Cl)cc45)C(=O)N[C@@H](Cc4c[nH]cn4)C(N)=O)(C3)NC(=O)[C@H](CC(N)=O)NC(=O)[C@H](Cc3ccccc3)NC(=O)[C@H](C)NC(=O)[C@H](C)NC(=O)[C@H](CC(=O)O)NC(=O)[C@H](CC(=O)O)NC1=O)NC(=O)[C@H](CC(C)(C)C)NC(=O)[C@H](CC(=O)O)NC2=O (stereo partly drawn) [I-791, Ac-PL3-Asp-Npg-B5-Asp-Asp-Ala-Ala-Phe-Asn-PyrS2-3Thi-5C1W-His-NH2]	310	2.05		48 (≈ 93.3 µg/mL)					
CC(=O)N1CCC[C@]12CC=CCCCC1(CCCC=CCCCOC(=O)N3CC[C@@](C(=O)N[C@@H](Cc4ccc5ccccc5c4)C(=O)N[C@@H](Cc4csc5ccccc45)C(=O)N[C@@H](Cc4c[nH]cn4)C(N)=O)(C3)NC(=O)[C@H](CC(N)=O)NC(=O)[C@H](Cc3ccccc3)NC(=O)[C@H](C)NC(=O)[C@H](C)NC(=O)[C@H](CC(=O)O)NC(=O)[C@H](CC(=O)O)NC1=O)NC(=O)[C@H](CC(C)(C)C)NC(=O)[C@H](CC(=O)O)NC2=O (stereo partly drawn) [I-795, Ac-PL3-Asp-Npg-B5-Asp-Asp-Ala-Ala-Phe-Asn-PyrS2-2NapA-BztA-His-NH2]	176	2.39	10 (≈ 19.7 µg/mL)						
CC(=O)N1CCC[C@]12CC=CCCCC1(CCCC=CCCCOC(=O)N3CC[C@@](C(=O)N[C@@H](Cc4ccsc4)C(=O)N[C@@H](Cc4csc5ccccc45)C(=O)N[C@@H](Cc4c[nH]cn4)C(N)=O)(C3)NC(=O)[C@H](CC(N)=O)NC(=O)[C@H](CC(=O)O)NC(=O)[C@H](C)NC(=O)[C@H](C)NC(=O)[C@H](CC(=O)O)NC(=O)[C@H](CC(=O)O)NC1=O)NC(=O)[C@H](CC(C)(C)C)NC(=O)[C@H](Cc1ccccc1)NC2=O (stereo partly drawn) [I-796, Ac-PL3-Phe-Npg-B5-Asp-Asp-Ala-Ala-Asp-Asn-PyrS2-3Thi-BztA-His-NH2]		2.45		35 (≈ 67.5 µg/mL)	8140				
CC(=O)N1CCC[C@]12CC=CCCCC1(CCCC=CCCCOC(=O)N3CC[C@@](C(=O)N[C@@H](Cc4ccsc4)C(=O)N[C@@H](Cc4csc5ccccc45)C(=O)N[C@@H](CCC(N)=O)C(N)=O)(C3)NC(=O)[C@H](CC(N)=O)NC(=O)[C@H](Cc3cscn3)NC(=O)[C@H](C)NC(=O)[C@H](C)NC(=O)[C@H](CC(=O)O)NC(=O)[C@H](CC(=O)O)NC1=O)NC(=O)[C@H](CC(C)(C)C)NC(=O)[C@H](CC(=O)O)NC2=O (stereo partly drawn) [I-812, Ac-PL3-Asp-Npg-B5-Asp-Asp-Ala-Ala-4Thz-Asn-PyrS2-3Thi-BztA-Gln-NH2]	33	1.9		47 (≈ 90.5 µg/mL)					
CC(=O)N1CCC[C@]12CC=CCCCC1(CCCC=CCCCCOC(=O)N3CC[C@@](C(=O)N[C@@H](Cc4ccsc4)C(=O)N[C@@H](Cc4csc5ccccc45)C(=O)N[C@@H](Cc4c[nH]cn4)C(=O)N[C@@H](C)C(N)=O)(C3)NC(=O)[C@H](CC(N)=O)NC(=O)[C@H](Cc3ccccc3)NC(=O)[C@H](C)NC(=O)[C@H](C)NC(=O)[C@H](CC(=O)O)NC(=O)[C@H](CC(=O)O)NC1=O)NC(=O)[C@H](CC(C)(C)C)NC(=O)[C@H](CC(=O)O)NC2=O (stereo partly drawn) [I-828, Ac-PL3-Asp-Npg-B5-Asp-Asp-Ala-Ala-Phe-Asn-PyrS3-3Thi-BztA-His-Ala-NH2]	13		40 (≈ 80.5 µg/mL)			13	2.137		
CC(=O)N1CCC[C@]12CC=CCCCC1(CCCC=CCCCOC(=O)N3CC[C@@](C(=O)N[C@@H](Cc4ccsc4)C(=O)N[C@@H](Cc4csc5ccccc45)C(=O)N[C@@H](Cc4c[nH]cn4)C(N)=O)(C3)NC(=O)[C@H](CC(N)=O)NC(=O)[C@H](Cc3ccccc3)NC(=O)[C@H](C)NC(=O)[C@H](C)NC(=O)[C@H](Cc3ccc(O)cc3)NC(=O)[C@H](CC(=O)O)NC1=O)NC(=O)[C@H](CC(C)(C)C)NC(=O)[C@H](CC(=O)O)NC2=O (stereo partly drawn) [I-843, Ac-PL3-Asp-Npg-B5-Asp-Tyr-Ala-Ala-Phe-Asn-PyrS2-3Thi-BztA-His-NH2]	154	2.49	10 (≈ 19.8 µg/mL)						
CC(=O)N1CCC[C@]12CC=CCCCC1(CCCC=CCCCOC(=O)N3CC[C@@](C(=O)N[C@@H](Cc4ccsc4)C(=O)N[C@@H](Cc4csc5ccccc45)C(=O)N[C@@H](Cc4c[nH]cn4)C(N)=O)(C3)NC(=O)[C@H](CC(N)=O)NC(=O)[C@H](Cc3ccccc3)NC(=O)[C@H](C)NC(=O)[C@H](C)NC(=O)[C@H]([C@@H](C)O)NC(=O)[C@H](CC(=O)O)NC1=O)NC(=O)[C@H](CC(C)(C)C)NC(=O)[C@H](CC(=O)O)NC2=O (stereo partly drawn) [I-845, Ac-PL3-Asp-Npg-B5-Asp-Thr-Ala-Ala-Phe-Asn-PyrS2-3Thi-BztA-His-NH2]	7	2.42	10 (≈ 19.1 µg/mL)						
CC(=O)N1CCC[C@]12CC=CCCCC1(CCCC=CCCCOC(=O)N3CC[C@@](C(=O)N[C@@H](Cc4ccsc4)C(=O)N[C@@H](Cc4csc5ccccc45)C(N)=O)(C3)NC(=O)[C@H](CC(N)=O)NC(=O)[C@H](Cc3ccccc3)NC(=O)[C@H](C)NC(=O)[C@H](C)NC(=O)[C@H]([C@@H](C)O)NC(=O)[C@H](CC(=O)O)NC1=O)NC(=O)[C@H](CC(C)(C)C)NC(=O)[C@H](CC(=O)O)NC2=O (stereo partly drawn) [I-860, Ac-PL3-Asp-Npg-B5-Asp-Thr-Ala-Ala-Phe-Asn-PyrS2-3Thi-BztA-NH2]	61		10 (≈ 17.8 µg/mL)			61	2.722		
CC(=O)N1CCC[C@]12CC=CCCCC1(CCCC=CCCCOC(=O)N3CC[C@@](C(=O)N[C@@H](Cc4ccsc4)C(=O)N[C@@H](Cc4csc5ccccc45)C(N)=O)(C3)NC(=O)[C@H](CC(N)=O)NC(=O)[C@H](Cc3ccccc3)NC(=O)[C@H](C)NC(=O)[C@H](C)NC(=O)[C@H](CCCNC(N)=O)NC(=O)[C@H](CC(=O)O)NC1=O)NC(=O)[C@H](CC(C)(C)C)NC(=O)[C@H](CC(=O)O)NC2=O (stereo partly drawn) [I-861, Ac-PL3-Asp-Npg-B5-Asp-Cit-Ala-Ala-Phe-Asn-PyrS2-3Thi-BztA-NH2]	40	2.55		20 (≈ 36.6 µg/mL)					
CC(=O)N1CCC[C@]12CC=CCCCC1(CCCC=CCCCOC(=O)N3CC[C@@](C(=O)N[C@@H](Cc4ccsc4)C(=O)N[C@@H](Cc4csc5ccccc45)C(N)=O)(C3)NC(=O)[C@H](CC(N)=O)NC(=O)[C@H](Cc3ccccc3)NC(=O)[C@H](C)NC(=O)[C@H](C)NC(=O)[C@H](CC(C)C)NC(=O)[C@H](CC(=O)O)NC1=O)NC(=O)[C@H](CC(C)(C)C)NC(=O)[C@H](CC(=O)O)NC2=O (stereo partly drawn) [I-862, Ac-PL3-Asp-Npg-B5-Asp-Leu-Ala-Ala-Phe-Asn-PyrS2-3Thi-BztA-NH2]	123	2.85	10 (≈ 17.9 µg/mL)						
CC(=O)N1CCC[C@]12CC=CCCCC1(CCCC=CCCCOC(=O)N3CC[C@@](C(=O)N[C@@H](Cc4ccsc4)C(=O)N[C@@H](Cc4csc5ccccc45)C(=O)N[C@@H](CCCCNC(=O)CN=[N+]=[N-])C(N)=O)(C3)NC(=O)[C@H](CC(N)=O)NC(=O)[C@H](Cc3ccccc3)NC(=O)[C@H](C)NC(=O)[C@H](C)NC(=O)[C@H](CC(=O)O)NC(=O)[C@H](CC(=O)O)NC1=O)NC(=O)[C@H](CC(C)(C)C)NC(=O)[C@H](CC(=O)O)NC2=O (stereo partly drawn) [I-878, Ac-PL3-Asp-Npg-B5-Asp-Asp-Ala-Ala-Phe-Asn-PyrS2-3Thi-BztA-[AzAc]Lys-NH2]			46 (≈ 92.1 µg/mL)					6	2.09

— patent publication US20240116985A1, “STAPLED PEPTIDES AND METHODS THEREOF” (priority 2020, published 2024)
